Test results as given in US20240246913A1, “2-CARBOXYL-INDOLE INHIBITORS OF METALLO-BETA-LACTAMASES” (Oxford University Innovation Limited, priority 2021, published 2024).

Legend:
VIM-2 = VIM-2 (Escherichia coli, UniProt Q5U7L7); experiment: MBL inhibition, FC-5 fluorescence assay, VIM-2; type: biochemical; details: FC-5 cephalosporin substrate, ranges of obtained pIC50, read-out: pIC50 VIM-2 (converted)
Method in brief: (§1)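 Reported potencies derive from normalized dose-response fits with variable slope, built on initial hydrolysis rates of fluorogenic cephalosporin FC-5 monitored at 380/460 nm, with quadruplicate wells at every concentration.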

NDM-1 = NDM-1 (Klebsiella pneumoniae, UniProt C7C422); experiment: MBL inhibition, FC-5 fluorescence assay, NDM-1; type: biochemical; details: FC-5 cephalosporin substrate, fluorescence; ranges of obtained pIC50; read-out: pIC50 NDM-1 (converted)
NDM-1, sequence (C7C422 29-270, looked up, species assumed): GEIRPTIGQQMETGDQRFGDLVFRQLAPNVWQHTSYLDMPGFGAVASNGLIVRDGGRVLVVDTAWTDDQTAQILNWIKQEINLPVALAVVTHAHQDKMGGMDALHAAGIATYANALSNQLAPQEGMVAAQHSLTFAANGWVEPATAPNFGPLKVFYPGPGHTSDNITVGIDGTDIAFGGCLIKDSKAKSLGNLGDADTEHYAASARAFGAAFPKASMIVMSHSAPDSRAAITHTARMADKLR
Method in brief: as §1

IMP-1 = IMP-1 (Serratia marcescens, UniProt P52699); experiment: MBL inhibition, FC-5 fluorescence assay, IMP-1; type: biochemical; details: FC-5 cephalosporin substrate, fluorescence; ranges of obtained pIC50; read-out: pIC50 IMP-1 (converted)
IMP-1, sequence (P52699 19-246, looked up, species assumed): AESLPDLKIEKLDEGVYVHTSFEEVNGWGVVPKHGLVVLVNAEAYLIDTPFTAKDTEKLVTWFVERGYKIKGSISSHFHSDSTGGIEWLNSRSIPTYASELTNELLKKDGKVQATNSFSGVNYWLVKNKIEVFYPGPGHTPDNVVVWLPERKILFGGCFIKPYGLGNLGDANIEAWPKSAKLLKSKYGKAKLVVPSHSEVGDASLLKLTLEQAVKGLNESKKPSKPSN
Method in brief: as §1

VIM-1 = VIM-1 (Pseudomonas aeruginosa, UniProt A0A0F7KYQ8); experiment: MBL inhibition, FC-5 fluorescence assay, VIM-1; type: biochemical; details: FC-5 cephalosporin substrate, ranges of obtained pIC50, read-out: pIC50 VIM-1 (converted)
Method in brief: as §1

[1] = system: Acinetobacter baumannii NDM-1; experiment: Antibiotic susceptibility testing (MIC), AB NDM-1; type: cell-based; details: agar or broth dilution (CLSI/EUCAST)
Method: (§2) Antibiotic susceptibility testing was performed using the agar or broth dilution method, in line with the Clinical and Laboratory Standards Institute (CLSI) and European Committee on Antimicrobial Susceptibility Testing (EUCAST) requirements.

Escherichia coli NDM-7 = experiment: Antibiotic susceptibility testing (MIC), EC NDM-7; type: cell-based; details: agar or broth dilution (CLSI/EUCAST)
Method: as §2

Escherichia coli NDM-1 = experiment: Antibiotic susceptibility testing (MIC), EC NDM-1; type: cell-based; details: agar or broth dilution (CLSI/EUCAST)
Method: as §2

[2] = Metabolic stability in human hepatocytes; type: in vitro ADME; details: cryopreserved human hepatocytes, 1 μM compound, 37° C., up to 90 min, read-out: Metabolic stability in hepatocytes, in vitro t1/2, Human
Method: (§3) Metabolic stability assays were performed in cryopreserved human and mouse hepatocytes. The hepatocytes were thawed and added to “Thawing media”, and centrifuged to pellet the hepatocytes. The cell pellet was taken up in Williams medium E (Invitrogen A1217601), the number of cells was calculated and adjusted to 1.0×10^6 cells/mi. The incubation was carried out on a heater-shaker at […], in a 24-well Picoplate (round bottom, PerkinElmer), using an incubation volume of […]. Thus, to obtain a final compound concentration of 1 μM, 0.7 μl of the 1 mM compound stock solution was pipetted to the wells of the plate. Reaction was initiated by adding 700 μl of cell suspension. Samples were incubated at 37° C. for […] and a zero sample was taken, i.e. 100 μl sample was removed to a 96-well plate and the reaction was quenched by adding 100 μl of 100% MeCN containing 50 nM Warfarin as an internal control. Consecutive samples were taken at time-points 5 min, 15 min, 30 min, 60 min, and 90 min. After finishing the experiment, samples were centrifuged at 3000 rpm for 15 min and before analysis by LC-MS/MS (Waters Corp, Milford, MA, USA).

[3] = Metabolic stability in mouse hepatocytes; type: in vitro ADME; details: cryopreserved mouse hepatocytes, 1 μM compound, 37° C., up to 90 min, read-out: Metabolic stability in hepatocytes, in vitro t1/2, Mouse
Method: as §3

[4] = Plasma protein binding, equilibrium dialysis, human plasma; type: in vitro ADME; details: pH 7.4, equilibrium dialysis (RED) 4 hours at 37° C., read-out: Plasma protein binding, fu, Human
Method in brief: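 Compound at 10 μM in plasma dialysed against 67 mM phosphate buffer pH 7.4 for 4 h at 37° C. in RED device; unbound fraction from buffer and plasma levels by LC-MS/MS. Plasma stability checked in parallel over 4 h at 37° C. versus frozen control.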

[5] = Plasma protein binding, equilibrium dialysis, mouse plasma; type: in vitro ADME; details: pH 7.4, equilibrium dialysis (RED) 4 hours at 37° C., read-out: Plasma protein binding, fu, Mouse
Method: The fraction of unbound compound (fu) in plasma from human or other animal species was determined by equilibrium dialysis at 37° C. for 4 hours using the Rapid Equilibrium Dialysis (RED) device (ThermoFisher Scientific). The test compound at a concentration of 10 μM was added to plasma and dialyzed against isotonic phosphate buffer (67 mM, pH 7.4) over 4 hours at 37° C. After dialysis, compound concentrations in buffer and plasma were quantified by LC-MS/MS. In parallel the stability of the compound in plasma was determined by incubating drug-spiked plasma (10 μM) at 37° C. for 4 hours, meanwhile the control plasma sample was kept in the freezer. The concentration of the compound in both samples was quantified by LC-MS/MS (Waters Corp, Milford, MA, USA).

| SMILES | IC50 (VIM-2) [nM] | IC50 (NDM-1) [nM] | IC50 (IMP-1) [nM] | IC50 (VIM-1) [nM] | MIC values AB NDM-1 [1] | MIC values EC NDM-7 (Escherichia coli NDM-7) | MIC values EC NDM-1 (Escherichia coli NDM-1) | half-life at 1 μM [2] [h] | half-life at 1 μM [3] [h] | fraction unbound at 4 h, 10 μM [4] | fraction unbound at 4 h, 10 μM [5] |
| --- | --- | --- | --- | --- | --- | --- | --- | --- | --- | --- | --- |
| C[C@@H](c1cccc2c(-c3ccc(CS(C)(=O)=O)c(F)c3)c(C(=O)O)[nH]c12)N1CC2(CN(C(=N)N)C2)OC1=O [IC-66, (S)-7-(1-(2-carbamimidoyl-6-oxo-5-oxa-2,7-diazaspiro[3.4]octan-7-yl)ethyl)-3-(3-fluoro-4-((methylsulfonyl)methyl)phenyl)-1H-indole-2-carboxylic acid] | 0.1 to 1 | 0.1 to 1 | > 10 | 0.1 to 1 | B (B MIC values 2 ÷ 8) | A (A = MIC values ≤ 1) | A (A = MIC values ≤ 1) | 2.5 to 6.67 | > 6.67 | > 0.25 | 0.005 to 0.05 |
| C[C@@H](c1cccc2c(-c3ccc(CS(C)(=O)=O)c(F)c3)c(C(=O)O)[nH]c12)n1cc(CN2CC(N)C2)oc1=O [IC-67, (S)-7-(1-(5-((3-aminoazetidin-1-yl)methyl)-2-oxooxazol-3(2H)-yl)ethyl)-3-(3-fluoro-4-((methylsulfonyl)methyl)phenyl)-1H-indole-2-carboxylic acid] | 0.1 to 1 | < 0.1 | > 10 | 1 to 10 | B (B MIC values 2 ÷ 8) | A (A = MIC values ≤ 1) | A (A = MIC values ≤ 1) | > 6.67 | > 6.67 | 0.05 to 0.25 | 0.005 to 0.05 |
| C[C@@H](c1cccc2c(-c3ccc(CS(C)(=O)=O)c(F)c3)c(C(=O)O)[nH]c12)n1cc(CCC2(N)CC2)oc1=O [IC-69, (S)-7-(1-(5-(2-(1-Aminocyclopropyl)ethyl)-2-oxooxazol-3(2H)-yl)ethyl)-3-(3-fluoro-4-((methylsulfonyl)methyl)phenyl)-1H-indole-2-carboxylic acid] | 0.1 to 1 | < 0.1 | > 10 | 0.1 to 1 | B (B MIC values 2 ÷ 8) | A (A = MIC values ≤ 1) | A (A = MIC values ≤ 1) | > 6.67 | < 2.5 | 0.05 to 0.25 | 0.005 to 0.05 |
| C[C@@H](c1cccc2c(-c3ccc(CS(C)(=O)=O)c(F)c3)c(C(=O)O)[nH]c12)n1cc(CCCN)oc1=O [IC-70, (S)-7-(1-(5-(3-aminopropyl)-2-oxooxazol-3(2H)-yl)ethyl)-3-(3-fluoro-4-((methylsulfonyl)methyl)phenyl)-1H-indole-2-carboxylic acid] | 0.1 to 1 | < 0.1 | > 10 | 0.1 to 1 | A (A = MIC values ≤ 1) | A (A = MIC values ≤ 1) | A (A = MIC values ≤ 1) | > 6.67 | 2.5 to 6.67 | 0.05 to 0.25 | 0.005 to 0.05 |
| C[C@@H](c1cccc2c(-c3ccc(CS(C)(=O)=O)c(F)c3)c(C(=O)O)[nH]c12)N1CC2(CCC(N)CC2)OC1=O (stereo partly drawn) [IC-71, (S)-7-(1-(8-amino-2-oxo-1-oxa-3-azaspiro[4.5]decan-3-yl)ethyl)-3-(3-fluoro-4-((methylsulfonyl)methyl)phenyl)-1H-indole-2-carboxylic acid] | 1 to 10 | 1 to 10 | > 10 | > 10 | C (C = MIC values > 8) | A (A = MIC values ≤ 1) | B (B MIC values 2 ÷ 8) | > 6.67 | 2.5 to 6.67 | > 0.25 | > 0.25 |
| CC(c1cccc2c(-c3ccc(CS(C)(=O)=O)c(F)c3)c(C(=O)O)[nH]c12)n1cc(CCC2(N)CC2)oc1=O (stereo not shown) [IC-74, 7-(1-(5-(2-(1-aminocyclopropyl)ethyl)-2-oxooxazol-3(2H)-yl)ethyl)-3-(3-fluoro-4-((methylsulfonyl)methyl)phenyl)-1H-indole-2-carboxylic acid] | 0.1 to 1 | < 0.1 | > 10 | 0.1 to 1 | B (B MIC values 2 ÷ 8) | A (A = MIC values ≤ 1) | A (A = MIC values ≤ 1) | > 6.67 | < 2.5 | 0.05 to 0.25 | 0.05 to 0.25 |
| CC(c1cccc2c(-c3ccc(CS(C)(=O)=O)c(F)c3)c(C(=O)O)[nH]c12)n1cc(CN)oc1=O (stereo not shown) [IC-79, 7-(1-(5-(Aminomethyl)-2-oxooxazol-3(2H)-yl)ethyl)-3-(3-fluoro-4-((methylsulfonyl)methyl)phenyl)-1H-indole-2-carboxylic acid] | 1 to 10 | 0.1 to 1 | > 10 | 1 to 10 | A (A = MIC values ≤ 1) | A (A = MIC values ≤ 1) | A (A = MIC values ≤ 1) | > 6.67 | < 2.5 | > 0.25 | 0.05 to 0.25 |
| CC(c1cccc2c(-c3ccc(CS(C)(=O)=O)c(F)c3)c(C(=O)O)[nH]c12)n1cc(CNC(=O)CN)oc1=O (stereo not shown) [IC-80, 7-(1-(5-((2-Aminoacetamido)methyl)-2-oxooxazol-3(2H)-yl)ethyl)-3-(3-fluoro-4-((methylsulfonyl)methyl)phenyl)-1H-indole-2-carboxylic acid] | 1 to 10 | 0.1 to 1 | > 10 | 1 to 10 | B (B MIC values 2 ÷ 8) | A (A = MIC values ≤ 1) | A (A = MIC values ≤ 1) | > 6.67 | < 2.5 | > 0.25 | 0.05 to 0.25 |
